Laboratory results published in US20030077645A1, “Superfamily receptor chimeras, translocation assay for superfamily receptor ligands, and methods and kits for detecting and characterizing receptor ligands” (priority 2001, published 2003).

Assays:
[1] = target: T1, GFP-RAR (wild type RAR) (Homo sapiens, UniProt P10276); details: 100 nM ligand, 1 hour, mouse mammary adenocarcinoma cells
T1 sequence (P10276 1-462): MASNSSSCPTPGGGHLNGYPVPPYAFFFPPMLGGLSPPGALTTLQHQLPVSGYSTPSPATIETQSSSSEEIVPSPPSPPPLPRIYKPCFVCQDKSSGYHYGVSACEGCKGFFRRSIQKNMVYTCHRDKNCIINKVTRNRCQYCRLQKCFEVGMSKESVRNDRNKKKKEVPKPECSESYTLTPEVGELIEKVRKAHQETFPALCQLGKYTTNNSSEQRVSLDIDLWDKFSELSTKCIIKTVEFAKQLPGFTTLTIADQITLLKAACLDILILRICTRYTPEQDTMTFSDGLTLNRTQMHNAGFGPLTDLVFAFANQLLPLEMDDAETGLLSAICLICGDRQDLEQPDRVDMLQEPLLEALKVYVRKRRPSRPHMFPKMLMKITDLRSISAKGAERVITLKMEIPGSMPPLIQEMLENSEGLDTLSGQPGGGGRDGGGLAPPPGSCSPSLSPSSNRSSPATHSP
Experimental: (§1) Fluorescence Microscopy. For fluorescence microscopy, cells were electroporated with 2 ug GFP-GR-RAR, GFP-GR, or GFP-RAR. […] GFP was excited with a 488 nm laser lines supplied from a air cooled argon laser. GFP emission was monitored between 505 and 590 nm with a pinhole setting of 1.0.
(§2) FIG. 3 is a series of photographs which depict subcellular trafficking of chimeric receptor. Mouse mammary adenocarcinoma cells were transfected with GFP-GR-RAR (panels A, B, C), GFP-GR (panels D, E, F), or GFP-RAR (panels G, H, I).

[2] = test system: GFP-GR-RAR; details: 100 nM ligand, 1 hour, mouse mammary adenocarcinoma cells
Experimental: as §1, §2

[3] = test system: GR-RAR chimera; details: 100 nM ATRA, 6 hours
Experimental: (§3) The 1471.1 cell line was used for this transfection study. Cells were maintained in DMEM with 10% characterized fetal calf serum, L-glutamine, and antibiotics. For transient transfections, 2×10^5 cells were resuspended in cold DMEM without serum with the indicated plasmids and incubated on ice for 1 minute. Electroporations were done in an electroporator at 140 V, 3 pulses and 10 msec pulse length followed by a 10 minute recovery on ice. Cells were then plated and allowed to recover overnight in complete media.
(§4) Assay of Receptor Activity. Cells were electroporated with 5 ug pLTRLuc, containing the MMTV LTR, and 0.7 ug pCMV-betaGal with or without 10 ug of the indicated receptor expression vector as described above. Cells were plated in duplicate in 100 mm dishes in DMEM containing 10% charcoal/dextran-treated FCS, as described above, and allowed to recover overnight. The next day, cells were treated with the indicated ligand for 6 hours.
(§5) Transfected cells were treated with the indicated ligand for 6 hours. Fold inductions are shown in the bottom table, and were calculated from the luciferase activity, normalized to beta-galactosidase activity, of ligand induced samples compared to untreated controls.

[4] = target: T2, Endogenous GR (Mus musculus, UniProt P06537); assay: cell-based; details: read-out: Fold induction (luciferase activity normalized to beta-galactosidase activity, vs untreated control)
T2 sequence (P06537 1-792): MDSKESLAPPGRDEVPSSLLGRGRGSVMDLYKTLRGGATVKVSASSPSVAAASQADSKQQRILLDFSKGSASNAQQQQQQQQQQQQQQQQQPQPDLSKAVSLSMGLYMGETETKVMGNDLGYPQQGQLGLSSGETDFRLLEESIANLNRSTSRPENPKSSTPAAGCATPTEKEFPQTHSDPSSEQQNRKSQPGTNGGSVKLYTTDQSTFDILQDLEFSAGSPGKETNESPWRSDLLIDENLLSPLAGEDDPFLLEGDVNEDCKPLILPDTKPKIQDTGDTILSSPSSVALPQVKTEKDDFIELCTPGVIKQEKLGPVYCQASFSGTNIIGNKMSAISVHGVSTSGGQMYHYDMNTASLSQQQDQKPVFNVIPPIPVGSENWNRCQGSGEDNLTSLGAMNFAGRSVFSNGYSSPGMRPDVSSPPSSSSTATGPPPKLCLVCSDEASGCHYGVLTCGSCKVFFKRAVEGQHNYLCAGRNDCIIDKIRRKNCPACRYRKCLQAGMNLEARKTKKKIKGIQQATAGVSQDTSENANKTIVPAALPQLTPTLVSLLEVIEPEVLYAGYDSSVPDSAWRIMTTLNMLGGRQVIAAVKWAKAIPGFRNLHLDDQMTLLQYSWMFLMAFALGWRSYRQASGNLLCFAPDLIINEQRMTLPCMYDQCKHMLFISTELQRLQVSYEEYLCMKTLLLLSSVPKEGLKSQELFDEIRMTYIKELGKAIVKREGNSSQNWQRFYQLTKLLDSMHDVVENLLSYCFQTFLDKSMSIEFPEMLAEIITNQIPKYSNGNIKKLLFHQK
Experimental: as §3, §4, §5

CC1=C(/C=C/C(C)=C/C=C/C(C)=C/C(=O)O)C(C)(C)CCC1 [ATRA, all-trans retinoic acid]
Subcellular distribution of wild type RAR in response to ligand [1]: always nuclear
Subcellular distribution of GR-RAR in response to ligand [2]: translocated to the nucleus
Fold induction (luciferase activity normalized to beta-galactosidase activity, vs untreated control) [3]: 18.6
fold induction at 0.1 µM [4]: 1.27
